From patent US8119624B2, “Fused phenyl amido heterocyclic compounds” (Pfizer Inc., priority 2006, dated 2012)
pEC50: −log10 of the molar value.

Biological target: T1, Full-length glucokinase (beta cell isoform) (Homo sapiens, UniProt P35557)
T1 construct: Full-length glucokinase (beta cell isoform) was His-tagged at N-terminus; His tag (N); made in house
T1 sequence (P35557 1-465): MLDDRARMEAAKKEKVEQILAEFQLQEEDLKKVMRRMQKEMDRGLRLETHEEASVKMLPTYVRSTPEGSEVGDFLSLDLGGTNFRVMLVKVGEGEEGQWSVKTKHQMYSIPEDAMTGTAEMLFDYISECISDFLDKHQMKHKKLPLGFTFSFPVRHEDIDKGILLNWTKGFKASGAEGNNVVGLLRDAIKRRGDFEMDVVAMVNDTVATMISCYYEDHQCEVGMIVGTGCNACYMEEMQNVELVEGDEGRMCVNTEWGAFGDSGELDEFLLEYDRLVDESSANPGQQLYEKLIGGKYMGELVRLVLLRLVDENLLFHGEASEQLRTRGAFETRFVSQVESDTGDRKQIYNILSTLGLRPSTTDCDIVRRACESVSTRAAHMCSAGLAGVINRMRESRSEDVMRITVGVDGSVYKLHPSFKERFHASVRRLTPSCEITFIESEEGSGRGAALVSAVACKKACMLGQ
Assay: Glucokinase biochemical assay (PK/LDH-coupled, NADH depletion at 340 nm): % activation, EC50, % max activation
Conditions: 5 mM glucose; for activation at 10 µM: 10 uM compound, % Activation=(Va/Vo−1)×100, read-out: % Activation at 10 uM; for pEC50: GK activation, read-out: EC50; for Emax: fitted maximum activation, read-out: % Max Activation
Method in brief: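 N-terminally His-tagged full-length human beta-cell glucokinase, room temperature, 5 mM glucose, 1 mM ATP, PK/LDH-coupled with 0.7 mM NADH, 1% DMSO final. Initial velocity from the 200–900 s slope of A340 decline. % activation = (Va/Vo−1)×100, measured across compound concentrations.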

Row | Structure (SMILES) | activation at 10 µM [%] | pEC50 | Emax [%]
1 | Cc1cc2c(Oc3ccc(S(C)(=O)=O)cc3)cc(C(=O)Nc3cccc(CO)n3)cc2o1 [Example 268, N-(6-(Hydroxymethyl)pyridin-2-yl)-2-methyl-4-(4-(methylsulfonyl)phenoxy)-benzofuran-6-carboxamide] | 6.4 | < 5.00 | –
2 | CCOc1ccc(NC(=O)c2cc(Oc3ccc(S(C)(=O)=O)cc3)c3cc(C)oc3c2)nc1 [Example 270, N-(5-ethoxypyridin-2-yl)-2-methyl-4-(4-(methylsulfonyl)-phenoxy)benzofuran-6-carboxamide] | 98.2 | 5.15 | 139
3 | Cc1cc2c(Oc3ccc(S(C)(=O)=O)cc3)cc(C(=O)Nc3ccn(C)n3)cc2o1 [Example 271, 4-(4-(Methylsulfonyl)phenoxy)-2-methyl-N-(1-methyl-1H-pyrazol-3-yl)benzofuran-6-carboxamide] | 148 | 5.89 | 184
4 | CCc1cc2c(Oc3ccc(S(C)(=O)=O)cc3)cc(C(=O)Nc3ccc(C)cn3)cc2o1 [Example 274, 2-Ethyl-N-(5-methylpyridin-2-yl)-4-[4-(methylsulfonyl)-phenoxy]-1-benzofuran-6-carboxamide] | 131 | 5.62 | 121
5 | CCc1cc2c(Oc3ccc(S(C)(=O)=O)cc3)cc(C(=O)Nc3ccn(C)n3)cc2o1 [Example 275, 2-Ethyl-N-(1-methyl-1H-pyrazol-3-yl)-4-[4-(methylsulfonyl)-phenoxy]-1-benzofuran-carboxamide] | 211 | 5.59 | 210
6 | CCc1cc2c(Oc3ccc(C(=O)N(C)C)cc3)cc(C(=O)Nc3ccc(C)cn3)cc2o1 [Example 276, 4-{4-[(Dimethylamino)carbonyl]phenoxy}-2-ethyl-N-(5-methylpyridin-2-yl)-1-benzofuran-6-carboxamide] | 20 | – | –
7 | Cc1cc2c(Oc3ccc(C(=O)N(C)C)nc3)cc(C(=O)Nc3cnn(C)n3)cc2o1 [Example 278, N,N-Dimethyl-5-(2-methyl-6-((2-methyl-2H-1,2,3-triazol-4-yl)carbamoyl)-benzofuran-4-yloxy)picolinamide] | 131 | 6.33 | 123
8 | Cc1cc2c(Oc3ccc(S(C)(=O)=O)cn3)cc(C(=O)Nc3cnn(C)n3)cc2o1 [Example 282, 2-Methyl-N-(2-methyl-2H-1,2,3-triazol-4-yl)-4-(5-(methylsulfonyl)pyridin-2-yloxy)benzofuran-6-carboxamide] | 140 | < 5.00 | –
9 | Cc1cc2c(Oc3ccc(S(C)(=O)=O)cn3)cc(C(=O)Nc3ccn(C)n3)cc2o1 [Example 283, 2-Methyl-N-(1-methyl-1H-pyrazol-3-yl)-4-(5-(methylsulfonyl)-pyridin-2-yloxy)-benzofuran-6-carboxamide] | 132 | < 5.00 | –
10 | COc1cnc(NC(=O)c2cc(Oc3ccc(S(C)(=O)=O)cn3)c3cc(C)oc3c2)cn1 [Example 284, N-(5-Methoxypyrazin-2-yl)-2-methyl-4-(5-(methylsulfonyl)-pyridin-2-yloxy)-benzofuran-6-carboxamide] | 86.1 | 5.26 | 218
11 | CN(C)C(=O)c1cc2c(Oc3ccc(S(C)(=O)=O)cc3)cc(C(=O)Nc3ccn(C)n3)cc2o1 [Example 286, N2,N2-Dimethyl-N6-(1-methyl-1H-pyrazol-3-yl)-4-[4-(methylsulfonyl)phenoxy]-1-benzofuran-2,6-dicarboxamide] | 178 | 5.59 | 224
12 | COc1cnc(NC(=O)c2cc(Oc3ccc(S(C)(=O)=O)cc3)c3cc(C(=O)N(C)C)oc3c2)cn1 [Example 287, N6-(5-Methoxypyrazin-2-yl)-N2,N2-dimethyl-4-[4-(methylsulfonyl)phenoxy]-1-benzofuran-2,6-dicarboxamide] | 80.3 | 6.25 | 169
13 | CN(C)C(=O)c1cc2c(Oc3ccc(S(C)(=O)=O)cc3)cc(C(=O)Nc3cnn(C)n3)cc2o1 [Example 288, N2,N2-Dimethyl-4-[4-(methylsulfonyl)phenoxy]-N6-(2-methyl-2H-1,2,3-triazol-4-yl)-1-benzofuran-2,6-dicarboxamide] | 161 | 5.77 | 188
14 | Cc1ccc(NC(=O)c2cc(Oc3ccc(S(C)(=O)=O)cc3)c3cc(C(=O)N4CCC4)oc3c2)nc1 [Example 290, 2-(Azetidin-1-ylcarbonyl)-N-(5-methylpyridin-2-yl)-4-[4-(methylsulfonyl)-phenoxy]-1-benzofuran-6-carboxamide] | 12.8 | – | –
15 | Cn1ccc(NC(=O)c2cc(Oc3ccc(S(C)(=O)=O)cc3)c3cc(C(=O)N4CCC4)oc3c2)n1 [Example 291, 2-(Azetidin-1-ylcarbonyl)-N-(1-methyl-1H-pyrazol-3-yl)-4-[4-(methylsulfonyl)-phenoxy]-1-benzofuran-6-carboxamide] | 12.7 | – | –

Continued, values first:

Row | activation at 10 µM [%] | pEC50 | Emax [%] | Structure (SMILES)
16 | 145 | 5.77 | 165 | Cc1cc2c(Oc3ccc(S(C)(=O)=O)cc3)cc(C(=O)Nc3cnn(C)n3)cc2o1 [Example 267, 2-Methyl-N-(2-methyl-2H-1,2,3-triazol-4-yl)-4-(4-(methylsulfonyl)phenoxy)-benzofuran-6-carboxamide]
17 | 34.8 | 5.15 | 59 | Cc1cc2c(Oc3ccc(S(C)(=O)=O)cc3)cc(C(=O)Nc3cccc(C(C)O)n3)cc2o1 (stereo not drawn) [Example 269, N-(6-(1-Hydroxyethyl)pyridin-2-yl)-2-methyl-4-(4-(methylsulfonyl)phenoxy)-benzofuran-6-carboxamide]
18 | 49.6 | 6.51 | 51 | Cc1cc2c(Oc3ccc(C(=O)N(C)C)c(F)c3)cc(C(=O)Nc3ccn(C)n3)cc2o1 [Example 272, 4-(4-(Dimethylcarbamoyl)-3-fluorophenoxy)-2-methyl-N-(1-methyl-1H-pyrazol-3-yl)benzofuran-6-carboxamide]
19 | 12.7 | – | – | Cc1ccc(NC(=O)c2cc(Oc3ccc(C(=O)N(C)C)c(F)c3)c3cc(C)oc3c2)nc1 [Example 273, 4-(4-(Dimethylcarbamoyl)-3-fluorophenoxy)-2-methyl-N-(5-methylpyridin-2-yl)benzofuran-6-carboxamide]
20 | 34.2 | – | – | Cc1ccc(NC(=O)c2cc(Oc3ccc(C(=O)N(C)C)nc3)c3cc(C)oc3c2)nc1 [Example 277, N,N-Dimethyl-5-[(2-methyl-6-{[(5-methylpyridin-2-yl)amino]-carbonyl}-1-benzofuran-4-yl)oxy]pyridine-2-carboxamide]
21 | 84.3 | 6.37 | 105 | COc1cnc(NC(=O)c2cc(Oc3ccc(C(=O)N(C)C)nc3)c3cc(C)oc3c2)cn1 [Example 279, 5-(6-((5-Methoxypyrazin-2-yl)carbamoyl)-2-methylbenzofuran-4-yloxy)-N,N-dimethylpicolinamide]
22 | 130 | 5.62 | 148 | Cc1cc2c(Oc3ccc(S(C)(=O)=O)cn3)cc(C(=O)Nc3cnc(N(C)C)cn3)cc2o1 [Example 280, N[5-(Dimethylamino)pyrazin-2-yl]-2-methyl-4-{[5-(methylsulfonyl)pyridin-2-yl]oxy}-1-benzofuran-6-carboxamide]
23 | 92.7 | 5.68 | 87 | Cc1ccc(NC(=O)c2cc(Oc3ccc(S(C)(=O)=O)cn3)c3cc(C)oc3c2)nc1 [Example 281, 2-Methyl-N-(5-methylpyridin-2-yl)-4-(5-(methylsulfonyl)pyridin-2-yloxy)-benzofuran-6-carboxamide]
24 | 121 | 6.26 | 118 | Cc1ccc(NC(=O)c2cc(Oc3ccc(S(C)(=O)=O)cc3)c3cc(C(=O)N(C)C)oc3c2)nc1 [Example 285, N2,N2-Dimethyl-N6-(5-methylpyridin-2-yl)-4-(4-(methylsulfonyl)-phenoxy)-benzofuran-2,6-dicarboxamide]
25 | 73.8 | 5.11 | 133 | COc1ccnc(NC(=O)c2cc(Oc3ccc(S(C)(=O)=O)cc3)c3cc(C(=O)N(C)C)oc3c2)c1 [Example 289, N6-(4-Methoxypyridin-2-yl)-N2,N2-dimethyl-4-[4-(methylsulfonyl)phenoxy]-1-benzofuran-2,6-dicarboxamide]
26 | 16.7 | – | – | Cn1ncc(NC(=O)c2cc(Oc3ccc(S(C)(=O)=O)cc3)c3cc(C(=O)N4CCC4)oc3c2)n1 [Example 292, 2-(Azetidin-1-ylcarbonyl)-4-[4-(methylsulfonyl)phenoxy]-N-(2-methyl-2H-1,2,3-triazol-4-yl)-1-benzofuran-6-carboxamide]
27 | 46.9 | 6.23 | 50 | COc1ccnc(NC(=O)c2cc(Oc3ccc(S(=O)(=O)N(C)C)c(F)c3)c3cc(C)oc3c2)c1 [Example 293, 4-{4-[(Dimethylamino)sulfonyl]-3-fluorophenoxy}-N-(4-methoxypyridin-2-yl)-2-methyl-1-benzofuran-6-carboxamide]
